Measured values taken from patent publication US9193731B2, “Antimicrobial compounds and methods of making and using the same” (Melinta Therapeutics, Inc., priority 2009, dated 2015).

Test system: Escherichia coli strain ATCC25922
Assay: standard microdilution assay to determine minimum inhibitory concentrations (MICs)
Format: cell-based
Settings: Escherichia coli strain ATCC25922, microdilution
In short: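 Broth microdilution MIC against E. coli ATCC25922, following CLSI protocols, typically in a 100 microliter final volume. Results reported as +/− relative to a 16 micrograms/ml cutoff.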

Compound	E. coli ATCC25922 MIC
N=C(N)NCCCNCc1ccc(-n2cc3cc(-c4cc(C(=O)NCCc5cccc(F)c5)cc(N5CCNCC5)c4)[nH]c3nc2=O)cc1 [Compound 1068]	+ (a “+” indicates that the compound has an MIC value of 16 micrograms/ml or less)
N=C(N)NCCCNCc1ccc(-n2cc3cc(-c4cc(C(=O)Nc5cccc(C(F)(F)F)c5)cc(N5CCNCC5)c4)[nH]c3nc2=O)cc1 [Compound 1069]	+ (a “+” indicates that the compound has an MIC value of 16 micrograms/ml or less)
N=C(N)NCCCNCc1ccc(-n2cc3cc(-c4cc(C(=O)N5CCC(F)(F)CC5)cc(N5CCNCC5)c4)[nH]c3nc2=O)cc1 [Compound 1074]	+ (a “+” indicates that the compound has an MIC value of 16 micrograms/ml or less)
N=C(N)NCCC(=O)NCc1ccc(-n2cc3cc(-c4ccc(S(=O)(=O)NC5CCNCC5)cc4)[nH]c3nc2=O)cc1 [Compound 1075]	+ (a “+” indicates that the compound has an MIC value of 16 micrograms/ml or less)
N=C(N)NCCCNCc1ccc(-n2cc3cc(-c4cccc(S(=O)(=O)N(Cc5ccc6nonc6c5)C5CCNCC5)c4)[nH]c3nc2=O)cc1 [Compound 1076]	+ (a “+” indicates that the compound has an MIC value of 16 micrograms/ml or less)
N=C(N)NCCCNCc1ccc(-n2cc3cc(-c4cccc(S(=O)(=O)N(CCN5CCCCC5)C5CCNCC5)c4)[nH]c3nc2=O)cc1 [Compound 1077]	+ (a “+” indicates that the compound has an MIC value of 16 micrograms/ml or less)
N=C(N)NCCCNCC(Cn1cc2cc(-c3ccc(S(=O)(=O)NC4CCNCC4)cc3)[nH]c2nc1=O)OCc1ccc(F)c(F)c1 (stereo not shown) [Compound 1089]	− (a “−” indicates that the compound has an MIC value greater than 16 micrograms/ml)
N=C(N)NCCCNC(=O)c1ccc(-n2cc3cc(-c4ccc(S(=O)(=O)N(Cc5cc(OC(F)(F)F)ccc5F)C5CCNCC5)cc4)[nH]c3nc2=O)cc1 [Compound 1090]	+ (a “+” indicates that the compound has an MIC value of 16 micrograms/ml or less)
COc1ccc(CN(C2CCNCC2)S(=O)(=O)c2ccc(-c3cc4cn(-c5ccc(C(N)=O)cc5)c(=O)nc4[nH]3)cc2)cc1[N+](=O)[O-] [Compound 1091]	− (a “−” indicates that the compound has an MIC value greater than 16 micrograms/ml)
NCc1ccc(-n2cc3cc(-c4ccc(S(=O)(=O)N(CCCN5CCCC(O)C5)C5CCNCC5)cc4)[nH]c3nc2=O)cc1 (stereo not shown) [Compound 1092]	− (a “−” indicates that the compound has an MIC value greater than 16 micrograms/ml)
N=C(N)NCCCNC(=O)c1ccc(-n2cc3cc(-c4ccc(S(=O)(=O)N(CCOc5ccc(F)cc5)C5CCNCC5)cc4)[nH]c3nc2=O)cc1 [Compound 1093]	+ (a “+” indicates that the compound has an MIC value of 16 micrograms/ml or less)
N=C(N)NCCCNCC(Cn1cc2cc(-c3ccc(S(=O)(=O)NC4CCNCC4)cc3)[nH]c2nc1=O)OCc1ccc(F)cc1 (stereo not shown) [Compound 1097]	− (a “−” indicates that the compound has an MIC value greater than 16 micrograms/ml)
N=C(N)NOCCNCc1ccc(-n2cc3cc(-c4ccc(S(=O)(=O)NC5CCNCC5)cc4)[nH]c3nc2=O)cc1 [Compound 1102]	+ (a “+” indicates that the compound has an MIC value of 16 micrograms/ml or less)
N=C(N)NCCCNS(=O)(=O)c1ccc(-n2cc3cc(-c4ccc(S(=O)(=O)NC5CCNCC5)cc4)[nH]c3nc2=O)cc1 [Compound 1103]	+ (a “+” indicates that the compound has an MIC value of 16 micrograms/ml or less)
N=C(N)NCCNCc1ccc(-n2cc3cc(-c4ccc(S(=O)(=O)NC5CCNCC5)cc4)[nH]c3nc2=O)cc1 [Compound 1104]	+ (a “+” indicates that the compound has an MIC value of 16 micrograms/ml or less)
N=C(N)NCCNCC(O)Cn1cc2cc(-c3ccc(S(=O)(=O)NC4CCNCC4)cc3)[nH]c2nc1=O (stereo not shown) [Compound 1108]	+ (a “+” indicates that the compound has an MIC value of 16 micrograms/ml or less)
COc1ccc(CN(C2CCNCC2)S(=O)(=O)c2ccc(-c3cc4cn(-c5ccc(C(=O)NCCCNC(=N)N)cc5)c(=O)nc4[nH]3)cc2)cc1[N+](=O)[O-] [Compound 1114]	+ (a “+” indicates that the compound has an MIC value of 16 micrograms/ml or less)
NC(=O)c1ccc(-n2cc3cc(-c4ccc(S(=O)(=O)N(Cc5cc(OC(F)(F)F)ccc5F)C5CCNCC5)cc4)[nH]c3nc2=O)cc1 [Compound 1115]	− (a “−” indicates that the compound has an MIC value greater than 16 micrograms/ml)
NC(=O)c1ccc(-n2cc3cc(-c4ccc(S(=O)(=O)N(CCCn5ccc(C(F)(F)F)n5)C5CCNCC5)cc4)[nH]c3nc2=O)cc1 [Compound 1116]	− (a “−” indicates that the compound has an MIC value greater than 16 micrograms/ml)
N=C(N)N[C@@H]1CCCN(Cc2ccc(-n3cc4cc(-c5ccc(S(=O)(=O)NC6CCNCC6)cc5)[nH]c4nc3=O)cc2)C1 [Compound 1119]	+ (a “+” indicates that the compound has an MIC value of 16 micrograms/ml or less)
N[C@@H]1CCCN(Cc2ccc(-n3cc4cc(-c5ccc(S(=O)(=O)NC6CCNCC6)cc5)[nH]c4nc3=O)cc2)C1 [Compound 1120]	− (a “−” indicates that the compound has an MIC value greater than 16 micrograms/ml)
N=C(N)NCCCNCc1ccc(-n2cc3cc(-c4ccc(S(=O)(=O)NC5CNC5)cc4)[nH]c3nc2=O)cc1 [Compound 1122]	+ (a “+” indicates that the compound has an MIC value of 16 micrograms/ml or less)
N=C(N)NCCCNC(=O)c1ccc(-n2cc3cc(-c4cccc(S(=O)(=O)N(CCCn5ccc(C(F)(F)F)n5)C5CCNCC5)c4)[nH]c3nc2=O)cc1 [Compound 1124]	− (a “−” indicates that the compound has an MIC value greater than 16 micrograms/ml)
N=C(N)NCCCNCc1ccc(-n2cc3cc(-c4ccc(S(=O)(=O)CCN)cc4)[nH]c3nc2=O)cc1 [Compound 1130]	+ (a “+” indicates that the compound has an MIC value of 16 micrograms/ml or less)
Nc1nccc(CCCNCc2ccc(-n3cc4cc(-c5ccc(S(=O)(=O)NC6CCNCC6)cc5)[nH]c4nc3=O)cc2)n1 [Compound 1132]	− (a “−” indicates that the compound has an MIC value greater than 16 micrograms/ml)

Same assay, conditions: Escherichia coli, ATCC25922, Escherichia coli strain ATCC25922, microdilution; read-out: E. coli ATCC25922 MIC

Compound	MIC
NCc1ccc(-n2cc3cc(-c4ccc(S(=O)(=O)N(CCCC5CCCO5)C5CCNCC5)cc4)[nH]c3nc2=O)cc1 (stereo not shown) [Compound 1066]	> 16 µg/mL
NCc1ccc(-n2cc3cc(-c4ccc(S(=O)(=O)N(CCCN5CCc6ccccc65)C5CCNCC5)cc4)[nH]c3nc2=O)cc1 [Compound 1067]	> 16 µg/mL
CNCc1ccc(-n2cc3cc(-c4ccc(S(=O)(=O)N(CCCN5CCCC(O)C5)C5CCNCC5)cc4)[nH]c3nc2=O)cc1 (stereo not shown) [Compound 1079]	> 16 µg/mL
NC(=O)c1ccc(-n2cc3cc(-c4ccc(S(=O)(=O)N(CCOc5ccc(F)cc5)C5CCNCC5)cc4)[nH]c3nc2=O)cc1 [Compound 1080]	> 16 µg/mL
NCc1ccc(-n2cc3cc(-c4ccc(S(=O)(=O)N(CCCc5ccc(O)cc5)C5CCNCC5)cc4)[nH]c3nc2=O)cc1 [Compound 1081]	> 16 µg/mL
NCC(Cn1cc2cc(-c3ccc(S(=O)(=O)NC4CCNCC4)cc3)[nH]c2nc1=O)OCc1ccc(F)cc1 (stereo not shown) [Compound 1085]	> 16 µg/mL
NCCCOc1cccc(-c2cc3cn(-c4ccc(CN)cc4)c(=O)nc3[nH]2)c1 [Compound 1087]	> 16 µg/mL
NCc1ccc(-n2cc3cc(-c4ccccc4OCCO)[nH]c3nc2=O)cc1 [Compound 1088]	> 16 µg/mL
COCCOCCOc1cccc(-c2cc3cn(-c4ccc(CN)cc4)c(=O)nc3[nH]2)c1 [Compound 1094]	> 16 µg/mL
NCc1ccc(-n2cc3cc(-c4cccc(OCCCO)c4)[nH]c3nc2=O)cc1 [Compound 1099]	> 16 µg/mL
NCc1ccc(-n2cc3cc(-c4cccc(OCCO)c4)[nH]c3nc2=O)cc1 [Compound 1100]	> 16 µg/mL
COCCOCCOc1cccc(-c2cc3cn(-c4ccc(CNCCCNC(=N)N)cc4)c(=O)nc3[nH]2)c1 [Compound 1101]	> 16 µg/mL
NCc1ccc(-n2cc3cc(-c4ccccc4OCCCO)[nH]c3nc2=O)cc1 [Compound 1105]	> 16 µg/mL
NCCCOc1ccccc1-c1cc2cn(-c3ccc(CN)cc3)c(=O)nc2[nH]1 [Compound 1106]	> 16 µg/mL
NCc1ccc(-n2cc3cc(-c4cccc(OCCCN5CCNCC5)c4)[nH]c3nc2=O)cc1 [Compound 1107]	> 16 µg/mL
N=C(N)NCCCNCc1ccc(-n2cc3cc(-c4cccc(OCCCO)c4)[nH]c3nc2=O)cc1 [Compound 1110]	> 16 µg/mL
CN(C)CCOc1ccccc1-c1cc2cn(-c3ccc(CN)cc3)c(=O)nc2[nH]1 [Compound 1111]	> 16 µg/mL
C=Cc1cc2cn(-c3ccc(C(=O)NCCCNC(=N)N)cc3)c(=O)nc2[nH]1 [Compound 1112]	> 16 µg/mL
CN(C)CCCOc1cccc(-c2cc3cn(-c4ccc(CN)cc4)c(=O)nc3[nH]2)c1 [Compound 1113]	> 16 µg/mL
NCc1ccc(-n2cc3cc(-c4ccccc4OCCCN4CCNCC4)[nH]c3nc2=O)cc1 [Compound 1117]	> 16 µg/mL
CCOCCOc1cccc(-c2cc3cn(-c4ccc(CN)cc4)c(=O)nc3[nH]2)c1 [Compound 1121]	> 16 µg/mL
NCc1ccc(-n2cc3cc(-c4cccc(S(=O)(=O)N(CCOc5ccc(F)cc5)C5CCNCC5)c4)[nH]c3nc2=O)cc1 [Compound 1123]	> 16 µg/mL
Cc1ccn(CCCN(C2CCNCC2)S(=O)(=O)c2cccc(-c3cc4cn(-c5ccc(C(N)=O)cc5)c(=O)nc4[nH]3)c2)n1 [Compound 1126]	> 16 µg/mL
NCc1ccc(-n2cc3cc(-c4cccc(OCCOc5ccc(Cl)cc5)c4)[nH]c3nc2=O)cc1 [Compound 1127]	> 16 µg/mL
NCc1ccc(-n2cc3cc(-c4cccc(OCCCc5ccc(Cl)cc5)c4)[nH]c3nc2=O)cc1 [Compound 1128]	> 16 µg/mL
CNCCOc1ccccc1-c1cc2cn(-c3ccc(CN)cc3)c(=O)nc2[nH]1 [Compound 1129]	> 16 µg/mL
CCOCCOc1ccccc1-c1cc2cn(-c3ccc(CN)cc3)c(=O)nc2[nH]1 [Compound 1131]	> 16 µg/mL
